Test results taken from patent publication EP0132540A1 (priority 1981, dated 1983).
≈ marks a conversion by molar mass, not a printed value.

Assays:
ECHO = assay: microbe, parasite or virus in culture; format: cell-based
Acute toxicity in mice = assay: Acute toxicity in mice; set-up: species or system ddy male mice; conditions: mouse, in vivo, suspended in 5% Arabic gum solution, mortality observed for 7 days
Procedure: Experimental Example 7: Acute Toxicity in Mice
Each compound of the invention was suspended in 5% Arabic gum solution and given orally (p.o.) or intraperitoneally (i.p.) to groups of ten ddy male mice weighed from 24 to 26 g at the dosage volume of 10 ml/kg. […] LD50 was determined according to the method of Wilcoxon and Litchfield.

Influenza B = assay: microbe, parasite or virus in culture; format: cell-based
Influenza A0 = assay: microbe, parasite or virus in culture; format: cell-based; conditions: Virus A = Influenza A0, MDCK, Vero and HEL cells
Parainfluenza Type 3 = assay: microbe, parasite or virus in culture; format: cell-based; conditions: Virus E = Parainfluenza Type 3
Rhino = assay: microbe, parasite or virus in culture; format: cell-based
Coxsackie Type B5 = assay: microbe, parasite or virus in culture; format: cell-based; conditions: Virus G = Coxsackie Type B5
Influenza A1 = assay: microbe, parasite or virus in culture; format: cell-based
[1] = Physicochemical properties (qualitative solubility); conditions: qualitative solubility in solvents
influenza A0 virus = assay: Protective action against the death of mice infected with influenza A0 virus; format: in vivo, ICR female mice; conditions: for Survival rate: twice a day for 14 days, survivors at 15th day
Description: Experimental Example 2 Protective Action against the Death of Mice. Infected with Influenza A0 Virus,
After the influenza A0 virus was inoculated to groups each -consisting of ten ICR female mice (16 - 18 g) intranasally under light anesthesia with ether, compound of the invention was given orally or intraperitoneally as multiple doses of twice a day starting one hour after infection and continued for 14 days. The result of the treatment was shown as the increase in percentage of survivors at 15th day.

influenza virus B/GL = format: in vivo, ICR female mice; conditions: result in words, oral
[2] = ip, Intra-peritoneal administration

SMILES | MIC (ECHO) [µg/mL] | LD50 at 168 h (Acute toxicity in mice; [2]) [mg/kg] | LD50 at 168 h (Acute toxicity in mice; Oral administration) [mg/kg] | MIC (Influenza B) [µg/mL] | MIC (Influenza A0) [µg/mL] | MIC (Parainfluenza Type 3) [µg/mL] | MIC (Rhino) [µg/mL] | MIC (Coxsackie Type B5) [µg/mL] | MIC (Influenza A1) [µg/mL] | Property (solubility) [1] | Survival rate (influenza A0 virus; intraperitoneal, 100 mg/kg) [%] | Survival rate (influenza A0 virus; oral, 300 mg/kg) [%] | Survival rate (influenza A0 virus; intraperitoneal, 10 mg/kg) [%] | Survival rate (influenza A0 virus; intraperitoneal, 30 mg/kg) [%] | Survival rate (influenza A0 virus; oral, 30 mg/kg) [%] | Survival rate (influenza A0 virus; oral, 100 mg/kg) [%] | protective action against death due to the infection (influenza A0 virus; result in words, oral or intraperitoneal) | survival rates of the treated groups as compared with that of the control (influenza virus B/GL)
CC(C)NS(=O)(=O)c1cc(C(=O)O)ccc1Cl [Compound 4, 4-chloro-3-isopropyl-aminoslfonylbenzoic acid] | 300 (≈ 1080 µM) | > 1000 | > 3000 | 300 (≈ 1080 µM) | 30 (≈ 108 µM) | 300 (≈ 1080 µM) | 300 (≈ 1080 µM) | 300 (≈ 1080 µM) | 100 (≈ 360 µM) | white crystalline powder; insoluble in benzene, hexane; soluble in hot water, methanol | 40 | 40 |  |  |  |  |  | 
NS(=O)(=O)c1cc(C(=O)O)c(Cl)cc1Cl [Compound 7, 5-aminosulfonyl-2,4-dichlorobenzoic acid] | 100 (≈ 370 µM) | > 1000 | > 3000 | 100 (≈ 370 µM) | 10 (≈ 37 µM) | 100 (≈ 370 µM) | 100 (≈ 370 µM) | 100 (≈ 370 µM) | 300 (≈ 1110 µM) | white crystalline powder; insoluble in benzene, hexane; soluble in hot water, methanol |  |  | 40 | 50 | 40 | 60 | extremely excellent activity | 
CCCCOC(=O)c1ccc(Br)c(S(N)(=O)=O)c1 [Compound 10, 3-aminosulfonyl-4-bromo-n-butylbenzoate] |  | > 1000 | > 3000 |  |  |  |  |  |  |  |  |  |  |  |  |  |  | extremely excellent activity
CNS(=O)(=O)c1cc(C(=O)O)ccc1Cl [Compound 1, 4-chloro-3-methylamino-sulfonylbenzoic acid] | 300 (≈ 1200 µM) | > 1000 | > 3000 | 300 (≈ 1200 µM) | 30 (≈ 120 µM) | 300 (≈ 1200 µM) | 300 (≈ 1200 µM) | 100 (≈ 401 µM) | 300 (≈ 1200 µM) | white crystalline powder; insoluble in benzene, hexane; soluble in hot water, methanol | 40 | 50 |  |  |  |  |  | 
CCNS(=O)(=O)c1cc(C(=O)O)ccc1Cl [Compound 2, 4-chloro-3-ethylamino-sulfonylbenzoic acid] | 300 (≈ 1140 µM) | > 1000 | > 3000 | 300 (≈ 1140 µM) | 30 (≈ 114 µM) | 300 (≈ 1140 µM) | 300 (≈ 1140 µM) | 300 (≈ 1140 µM) | 300 (≈ 1140 µM) | white crystalline powder; insoluble in benzene, hexane; soluble in hot water, methanol | 40 | 50 |  |  |  |  |  | 
CC(C)OC(=O)c1ccc(Br)c(S(N)(=O)=O)c1 [Compound 9, 3-aminosulfonyl-4-bromo-isopropylbenzoate] |  | > 1000 | > 3000 |  |  |  |  |  |  |  |  |  |  |  |  |  |  | 
C=CCOC(=O)c1cc(S(N)(=O)=O)c(Cl)cc1Cl [Compound 11, 5-aminosulfonyl-2,4-dichloro-allylbenzoate] |  | > 1000 | > 3000 |  |  |  |  |  |  |  |  |  |  |  |  |  |  | 
CN(C)S(=O)(=O)c1cc(C(=O)O)ccc1Cl [Compound 3, 4-chloro-3-dimethyl-aminosulfonylbenzoic acid] | 300 (≈ 1140 µM) | > 1000 | > 3000 | 300 (≈ 1140 µM) | 30 (≈ 114 µM) | 300 (≈ 1140 µM) | 300 (≈ 1140 µM) | 300 (≈ 1140 µM) | 300 (≈ 1140 µM) | white crystalline powder; insoluble in benzene, hexane; soluble in hot water, methanol | 40 | 50 |  |  |  |  |  | 
COC(=O)c1ccc(F)c(S(N)(=O)=O)c1 [Compound 8, 3-aminosulfonyl-4-fluoromethylbenzoate] |  | > 1000 | > 3000 |  |  |  |  |  |  |  |  |  |  |  |  |  |  | 
O=C(O)c1ccc(Cl)c(S(=O)(=O)N2CCOCC2)c1 [Compound 6, 4-chloro-3-morpholino-sulfonylbenzoic acid] | 100 (≈ 327 µM) | > 1000 | > 3000 | 300 (≈ 981 µM) | 30 (≈ 98.1 µM) | 300 (≈ 981 µM) | 300 (≈ 981 µM) | 300 (≈ 981 µM) | 300 (≈ 981 µM) | white crystalline powder; insoluble in benzene, hexane; soluble in hot water, methanol | 50 | 50 |  |  |  |  |  | 
O=C(O)c1ccc(Cl)c(S(=O)(=O)Nc2ccccc2)c1 [Compound 5, 3-anilinosulfonyl-4-chlorobenzoic acid] | 300 (≈ 962 µM) | 968 | > 3000 | 300 (≈ 962 µM) | 30 (≈ 96.2 µM) | 300 (≈ 962 µM) | 300 (≈ 962 µM) | 100 (≈ 321 µM) | 300 (≈ 962 µM) | white crystalline powder; insoluble in benzene, hexane; soluble in hot water, methanol | 40 | 40 |  |  |  |  |  | 
